From ChEMBL document CHEMBL1201862, “PubChem BioAssay data set” (2004)
Values belong to the molecule of their own block, whether it stands above or below them. Activity calls are given as the source filed them.

Tests used:
A-375 [1] = test: A375 melanoma cell viability reduction, dose response, counter-screen for MITF modulator project, cherry-pick samples, set 2 (AID 540335); format: functional, cell-based; settings: Homo sapiens
A-375 [2] = test: MITF: Counter assay: A375 proliferation Measured in Cell-Based System Using Plate Reader - 2084-03_Inhibitor_Dose_DryPowder_Activity. [Related pubchem assays (depositor defined):AID488944]; format: functional; settings: Homo sapiens
HEK293 [3] = test: SAR Analysis of small molecule inhibitors of B-cell specific antigen receptor-induced NF-kB activation in a HEK-293T cell line using a luminescence assay - Set 2. [Related pubchem assays (depositor defined):AID435022, AID435025, AID489021]; format: functional, cell-based; settings: Homo sapiens
HEK293 [4] = test: cytotoxicity in HEK293T NF-kB-Luc cells, SAR follow-up, cytotoxicity control for NF-kB activator project, cell-based, resazurin fluorescence (AID 493251); format: functional; settings: Homo sapiens
Jurkat = test: SAR Analysis of small molecule inhibitors of […] specific antigen receptor-induced NF-kB activation in a Jurkat cell line using a luminescence assay - Set 3. [Related pubchem assays (depositor defined):AID435022, AID435025, AID465]; format: functional, cell-based; settings: Homo sapiens
SUMO E1/E2 = SUMO E1/E2 (Homo sapiens, UniProt P63279+Q9UBE0+Q9UBT2); test: SAR analysis of SUMOylation using HTRF in an in-Vitro dose response assay. [Related pubchem assays (depositor defined):AID2006, AID2011, AID2018, AID2069, AID2658]; format: functional
[5] = target: T1, Voltage-gated N-type calcium channel alpha-1B subunit/Amyloid beta A4 precursor protein-binding family A member 1 (Homo sapiens, UniProt Q00975+Q02410); test: disruptors of Mint-PDZ/N-type channel peptide interaction – biochemical, HTRF, SAR follow-up (AID 2489); format: functional
[6] = target: T1, Voltage-gated N-type calcium channel alpha-1B subunit/Amyloid beta A4 precursor protein-binding family A member 1; test: disruptors of Mint-PDZ/N-type channel peptide interaction – biochemical, HTRF, set 2, SAR follow-up (AID 434980); format: functional
[7] = target: DNA repair protein RAD52 homolog (Homo sapiens, UniProt P43351); format: functional, biochemical
Escherichia coli [8] = test: microbe, parasite or virus in culture
[9] = target: T2, Heat shock factor protein 1 (Mus musculus, UniProt P38532); test: inhibition of MG132-induced HSE-luciferase signal, confirmation, cell-based, NIH3T3, luminescence, dose retest (AID 2382); format: functional;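 note: NIH3T3 fibroblasts with HSF1-driven luciferase reporter stressed by proteasome inhibitor MG132; luminescence from HSF1-driven luciferase expression after 8 hours of MG132 stress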
T2 sequence (P38532 whole entry): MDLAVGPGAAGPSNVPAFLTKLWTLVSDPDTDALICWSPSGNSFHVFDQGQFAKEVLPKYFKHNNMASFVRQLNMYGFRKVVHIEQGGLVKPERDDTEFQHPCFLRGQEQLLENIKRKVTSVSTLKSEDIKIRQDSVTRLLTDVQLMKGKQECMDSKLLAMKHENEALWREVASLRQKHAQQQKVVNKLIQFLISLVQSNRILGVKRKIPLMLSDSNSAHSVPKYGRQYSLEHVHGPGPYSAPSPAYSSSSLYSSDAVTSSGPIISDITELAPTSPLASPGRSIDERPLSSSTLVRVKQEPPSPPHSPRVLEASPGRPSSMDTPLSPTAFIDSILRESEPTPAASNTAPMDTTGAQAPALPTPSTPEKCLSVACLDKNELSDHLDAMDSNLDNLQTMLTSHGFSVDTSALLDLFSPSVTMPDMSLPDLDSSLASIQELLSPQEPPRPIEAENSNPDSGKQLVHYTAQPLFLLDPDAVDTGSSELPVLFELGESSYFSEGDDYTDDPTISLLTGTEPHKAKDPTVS

Phospholipase D1 = Phospholipase D1 (Homo sapiens, UniProt Q13393); test: PLD1 inhibitor potency in cells, dose response (AID 602151); format: functional;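 note: cellular PLD1 assay in Calu-1 cells stimulated with PMA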
Phospholipase D2 = Phospholipase D2 (Homo sapiens, UniProt O14939); test: PLD2 inhibitor potency in cells, dose response (AID 602147); format: functional;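 note: cellular assay in HEK293 cells overexpressing GFP-tagged PLD2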
[10] = target: T3, Sentrin-specific protease 8 (Homo sapiens, UniProt Q96LD8); test: SENP8 protease inhibitors, SAR follow-up, biochemical, luminescence (AID 504501); format: functional
T3 sequence (Q96LD8 whole entry): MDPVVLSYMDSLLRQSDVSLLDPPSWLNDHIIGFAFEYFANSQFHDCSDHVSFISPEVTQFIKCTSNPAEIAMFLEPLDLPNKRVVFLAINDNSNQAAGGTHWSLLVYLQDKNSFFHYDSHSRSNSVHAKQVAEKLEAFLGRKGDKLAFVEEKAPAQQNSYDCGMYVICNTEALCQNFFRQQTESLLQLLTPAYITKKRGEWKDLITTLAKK

Caspase-3 = target: T4, Caspase-3 (Homo sapiens, UniProt P42574); test: SAR Analysis of small molecule inhibitors of Sentrin-specific proteases (SENPs) using a Caspase-3 Selectivity assay. [Related pubchem assays (depositor defined):AID2540, AID2599, AID434973, AID489001]; format: functional
T4 sequence (P42574 whole entry): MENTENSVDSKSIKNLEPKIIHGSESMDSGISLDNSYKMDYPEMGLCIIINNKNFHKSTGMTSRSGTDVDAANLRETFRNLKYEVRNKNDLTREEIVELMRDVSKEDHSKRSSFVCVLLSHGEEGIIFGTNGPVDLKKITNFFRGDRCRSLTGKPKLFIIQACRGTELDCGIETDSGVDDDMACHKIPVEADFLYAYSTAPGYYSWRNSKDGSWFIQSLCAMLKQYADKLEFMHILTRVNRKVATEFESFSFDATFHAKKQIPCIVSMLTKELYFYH

[11] = target: T5, Sentrin-specific protease 6 (Homo sapiens, UniProt Q9GZR1); test: SAR Analysis of small molecule inhibitors of Sentrin-specific protease 6 (SENP6) using a Luminescent assay. [Related pubchem assays (depositor defined):AID2582, AID2599]; format: functional
T5 sequence (Q9GZR1 whole entry): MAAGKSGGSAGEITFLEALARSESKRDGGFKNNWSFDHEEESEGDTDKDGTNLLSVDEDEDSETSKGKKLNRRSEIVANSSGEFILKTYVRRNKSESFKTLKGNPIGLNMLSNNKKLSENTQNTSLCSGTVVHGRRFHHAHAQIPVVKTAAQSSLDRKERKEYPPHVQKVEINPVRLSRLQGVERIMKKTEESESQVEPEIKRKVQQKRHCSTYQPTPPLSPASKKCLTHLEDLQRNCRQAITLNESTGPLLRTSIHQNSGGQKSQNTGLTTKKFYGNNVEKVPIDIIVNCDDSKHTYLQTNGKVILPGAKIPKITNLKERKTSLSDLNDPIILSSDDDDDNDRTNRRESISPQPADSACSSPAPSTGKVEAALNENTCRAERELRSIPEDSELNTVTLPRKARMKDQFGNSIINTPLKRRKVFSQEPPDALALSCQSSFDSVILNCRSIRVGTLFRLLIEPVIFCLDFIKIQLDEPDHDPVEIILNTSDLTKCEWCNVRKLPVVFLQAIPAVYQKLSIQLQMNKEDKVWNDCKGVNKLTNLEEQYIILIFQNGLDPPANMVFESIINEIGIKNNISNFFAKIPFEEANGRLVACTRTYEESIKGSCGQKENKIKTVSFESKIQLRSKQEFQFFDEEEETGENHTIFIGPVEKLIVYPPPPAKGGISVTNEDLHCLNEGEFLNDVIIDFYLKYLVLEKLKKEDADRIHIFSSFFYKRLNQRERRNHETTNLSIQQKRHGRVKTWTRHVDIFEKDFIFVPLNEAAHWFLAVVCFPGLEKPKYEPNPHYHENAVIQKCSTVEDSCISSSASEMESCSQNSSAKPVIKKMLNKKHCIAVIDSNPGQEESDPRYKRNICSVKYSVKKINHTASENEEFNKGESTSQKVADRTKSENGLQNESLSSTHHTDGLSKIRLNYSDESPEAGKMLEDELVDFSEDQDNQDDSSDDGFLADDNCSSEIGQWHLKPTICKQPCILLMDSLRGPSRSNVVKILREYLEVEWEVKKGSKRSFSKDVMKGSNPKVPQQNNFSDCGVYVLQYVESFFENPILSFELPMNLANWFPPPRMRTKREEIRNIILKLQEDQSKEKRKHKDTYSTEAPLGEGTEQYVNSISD

[12] = target: T6, Sentrin-specific protease 7 (Homo sapiens, UniProt Q9BQF6); test: SENP7 protease inhibitors, SAR follow-up, biochemical, luminescence (AID 504497); format: functional
T6 sequence (Q9BQF6 whole entry): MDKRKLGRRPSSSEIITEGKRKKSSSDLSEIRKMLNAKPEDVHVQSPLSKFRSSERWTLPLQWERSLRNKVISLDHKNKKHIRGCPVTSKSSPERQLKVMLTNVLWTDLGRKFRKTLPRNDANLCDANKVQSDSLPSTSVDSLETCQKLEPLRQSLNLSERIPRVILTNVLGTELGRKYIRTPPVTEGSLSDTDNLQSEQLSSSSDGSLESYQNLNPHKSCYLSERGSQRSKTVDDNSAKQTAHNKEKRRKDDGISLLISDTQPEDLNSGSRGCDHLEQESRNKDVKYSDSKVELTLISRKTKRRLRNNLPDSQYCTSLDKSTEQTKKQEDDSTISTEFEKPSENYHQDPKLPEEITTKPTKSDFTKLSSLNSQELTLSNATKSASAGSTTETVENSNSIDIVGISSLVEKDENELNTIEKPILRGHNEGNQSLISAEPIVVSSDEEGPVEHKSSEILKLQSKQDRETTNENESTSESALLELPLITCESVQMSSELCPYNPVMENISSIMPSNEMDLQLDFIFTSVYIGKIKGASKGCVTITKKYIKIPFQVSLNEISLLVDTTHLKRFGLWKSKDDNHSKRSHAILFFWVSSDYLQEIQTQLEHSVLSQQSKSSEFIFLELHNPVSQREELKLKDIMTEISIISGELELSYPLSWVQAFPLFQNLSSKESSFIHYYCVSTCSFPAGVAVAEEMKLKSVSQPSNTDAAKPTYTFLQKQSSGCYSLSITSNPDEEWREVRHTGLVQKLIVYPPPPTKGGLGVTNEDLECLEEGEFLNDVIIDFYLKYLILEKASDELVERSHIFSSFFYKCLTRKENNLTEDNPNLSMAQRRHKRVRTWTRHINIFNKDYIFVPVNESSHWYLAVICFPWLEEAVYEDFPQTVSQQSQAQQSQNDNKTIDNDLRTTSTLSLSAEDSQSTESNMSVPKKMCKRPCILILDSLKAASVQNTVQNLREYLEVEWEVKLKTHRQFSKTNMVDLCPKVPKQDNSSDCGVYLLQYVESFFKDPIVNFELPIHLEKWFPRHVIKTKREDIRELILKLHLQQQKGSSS

Escherichia coli [13] = test: microbe, parasite or virus in culture; remark: listed apart in the source

Chain of Phospholipase D2 (O14939 whole entry): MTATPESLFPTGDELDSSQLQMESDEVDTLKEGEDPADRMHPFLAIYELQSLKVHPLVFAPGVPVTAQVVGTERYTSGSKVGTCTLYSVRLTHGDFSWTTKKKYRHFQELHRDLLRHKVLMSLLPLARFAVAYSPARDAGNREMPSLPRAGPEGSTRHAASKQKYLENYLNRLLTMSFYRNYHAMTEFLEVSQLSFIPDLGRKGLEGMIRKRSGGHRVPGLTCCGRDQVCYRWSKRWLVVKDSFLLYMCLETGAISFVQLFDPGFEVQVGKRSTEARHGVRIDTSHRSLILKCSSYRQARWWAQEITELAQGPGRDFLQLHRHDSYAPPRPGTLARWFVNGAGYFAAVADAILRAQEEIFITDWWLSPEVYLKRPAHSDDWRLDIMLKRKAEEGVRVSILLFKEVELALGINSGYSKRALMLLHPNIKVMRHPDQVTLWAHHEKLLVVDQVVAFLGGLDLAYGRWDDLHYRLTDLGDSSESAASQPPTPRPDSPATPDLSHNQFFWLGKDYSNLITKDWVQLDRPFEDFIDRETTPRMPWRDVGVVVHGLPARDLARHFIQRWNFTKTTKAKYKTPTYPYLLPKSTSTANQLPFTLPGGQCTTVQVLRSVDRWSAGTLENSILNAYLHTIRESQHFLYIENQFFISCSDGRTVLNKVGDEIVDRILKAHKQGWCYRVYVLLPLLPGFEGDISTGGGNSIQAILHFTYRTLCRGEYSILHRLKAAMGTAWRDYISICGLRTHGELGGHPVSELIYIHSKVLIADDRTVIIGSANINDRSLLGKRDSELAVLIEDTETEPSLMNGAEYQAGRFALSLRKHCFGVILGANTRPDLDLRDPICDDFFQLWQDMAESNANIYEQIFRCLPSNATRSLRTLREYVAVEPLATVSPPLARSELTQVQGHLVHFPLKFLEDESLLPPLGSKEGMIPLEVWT
Chain of Phospholipase D1 (Q13393 whole entry): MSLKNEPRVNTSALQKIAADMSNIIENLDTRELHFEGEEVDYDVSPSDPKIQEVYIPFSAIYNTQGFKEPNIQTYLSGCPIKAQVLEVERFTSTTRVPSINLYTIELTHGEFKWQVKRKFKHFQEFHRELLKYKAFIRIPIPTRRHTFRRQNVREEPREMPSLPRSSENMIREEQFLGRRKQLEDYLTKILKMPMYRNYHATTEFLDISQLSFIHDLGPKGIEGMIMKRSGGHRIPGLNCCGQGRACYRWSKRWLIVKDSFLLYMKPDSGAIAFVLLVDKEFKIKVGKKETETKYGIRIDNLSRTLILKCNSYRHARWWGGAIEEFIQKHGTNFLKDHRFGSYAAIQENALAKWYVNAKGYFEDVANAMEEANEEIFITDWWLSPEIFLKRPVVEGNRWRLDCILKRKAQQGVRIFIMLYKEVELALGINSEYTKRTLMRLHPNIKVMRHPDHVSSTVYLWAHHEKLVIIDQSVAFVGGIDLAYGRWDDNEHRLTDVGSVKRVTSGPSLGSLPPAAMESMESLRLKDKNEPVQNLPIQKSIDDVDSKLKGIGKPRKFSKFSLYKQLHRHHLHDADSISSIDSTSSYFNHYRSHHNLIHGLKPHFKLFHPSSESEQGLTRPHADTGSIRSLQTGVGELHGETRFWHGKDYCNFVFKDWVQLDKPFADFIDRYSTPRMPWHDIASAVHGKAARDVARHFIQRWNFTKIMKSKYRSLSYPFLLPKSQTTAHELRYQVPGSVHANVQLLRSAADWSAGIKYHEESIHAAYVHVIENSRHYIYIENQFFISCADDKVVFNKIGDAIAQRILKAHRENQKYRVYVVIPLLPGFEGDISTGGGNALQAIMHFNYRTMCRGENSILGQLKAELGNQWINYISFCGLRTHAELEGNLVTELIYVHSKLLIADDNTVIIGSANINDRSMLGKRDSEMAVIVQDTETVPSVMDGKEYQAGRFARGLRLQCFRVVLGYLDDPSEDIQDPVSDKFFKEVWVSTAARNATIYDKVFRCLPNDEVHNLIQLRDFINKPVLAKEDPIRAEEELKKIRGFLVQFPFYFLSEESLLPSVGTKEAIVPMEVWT
Chain of DNA repair protein RAD52 homolog (P43351 whole entry): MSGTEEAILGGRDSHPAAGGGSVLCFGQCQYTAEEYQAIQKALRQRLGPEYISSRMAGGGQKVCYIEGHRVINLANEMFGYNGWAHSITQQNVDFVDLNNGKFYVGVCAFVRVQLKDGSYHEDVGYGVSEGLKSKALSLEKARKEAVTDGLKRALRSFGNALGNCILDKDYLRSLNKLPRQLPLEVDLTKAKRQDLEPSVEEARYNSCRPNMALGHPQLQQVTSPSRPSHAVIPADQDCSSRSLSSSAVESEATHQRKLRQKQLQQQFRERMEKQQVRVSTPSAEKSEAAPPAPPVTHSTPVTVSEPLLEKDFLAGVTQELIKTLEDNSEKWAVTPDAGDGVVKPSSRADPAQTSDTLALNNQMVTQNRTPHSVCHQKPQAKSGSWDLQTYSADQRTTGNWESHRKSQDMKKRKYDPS
Chain of SUMO E1/E2 (Q9UBE0 whole entry): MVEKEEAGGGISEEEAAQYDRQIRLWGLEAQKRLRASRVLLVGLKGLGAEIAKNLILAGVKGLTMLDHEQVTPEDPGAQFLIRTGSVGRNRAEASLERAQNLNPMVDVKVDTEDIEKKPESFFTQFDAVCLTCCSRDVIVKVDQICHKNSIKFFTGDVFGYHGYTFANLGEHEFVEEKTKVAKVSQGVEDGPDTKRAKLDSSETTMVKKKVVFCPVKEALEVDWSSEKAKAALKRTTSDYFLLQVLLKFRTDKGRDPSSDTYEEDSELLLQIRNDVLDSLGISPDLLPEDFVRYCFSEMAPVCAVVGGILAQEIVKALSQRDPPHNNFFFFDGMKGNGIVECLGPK
Chain of SUMO E1/E2 (Q9UBT2 whole entry): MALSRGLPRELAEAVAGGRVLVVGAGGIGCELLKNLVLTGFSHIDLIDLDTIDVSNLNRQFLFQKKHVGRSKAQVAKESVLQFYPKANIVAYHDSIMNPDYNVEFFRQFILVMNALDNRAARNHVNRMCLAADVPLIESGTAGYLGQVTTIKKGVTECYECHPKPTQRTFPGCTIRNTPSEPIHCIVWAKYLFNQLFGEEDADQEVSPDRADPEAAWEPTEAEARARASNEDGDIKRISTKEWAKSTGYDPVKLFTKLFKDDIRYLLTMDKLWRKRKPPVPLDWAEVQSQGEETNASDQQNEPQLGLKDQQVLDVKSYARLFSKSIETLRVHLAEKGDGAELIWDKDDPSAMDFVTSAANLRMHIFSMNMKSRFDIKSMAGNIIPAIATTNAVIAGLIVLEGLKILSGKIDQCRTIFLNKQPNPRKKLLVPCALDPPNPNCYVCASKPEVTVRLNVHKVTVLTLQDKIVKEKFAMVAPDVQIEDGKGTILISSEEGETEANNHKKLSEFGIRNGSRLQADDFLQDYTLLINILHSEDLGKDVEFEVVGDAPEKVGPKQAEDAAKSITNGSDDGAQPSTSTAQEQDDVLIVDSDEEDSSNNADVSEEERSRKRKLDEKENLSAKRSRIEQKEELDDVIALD
Chain of SUMO E1/E2 (P63279 whole entry): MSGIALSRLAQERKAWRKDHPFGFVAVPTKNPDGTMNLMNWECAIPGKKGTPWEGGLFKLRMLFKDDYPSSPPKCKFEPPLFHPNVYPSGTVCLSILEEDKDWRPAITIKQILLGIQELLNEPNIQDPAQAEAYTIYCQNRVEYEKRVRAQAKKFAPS

SMILES: CCOc1ccc(N(CC(=O)Nc2ccc(OC)cc2)S(C)(=O)=O)cc1
AC50 (A-375 [1]): > 35 µM (active) | AC50 (A-375 [2]): > 35 µM (active)

SMILES: CCOc1ccc(-c2nc(CSCC(=O)NCCc3ccccc3)c(C)o2)cc1
IC50 (HEK293 [3]): 22.9 µM (inactive) | IC50 (HEK293 [4]): 35.6 µM (inactive) | IC50 (Jurkat): 55 µM (inactive)

IC50 (SUMO E1/E2): 2.01 µM (active) | IC50 [5]: 5.19 µM (active) | IC50 [6]: 6 µM (active) | AC50 [7]: 11.7 µM (active)
SMILES: CCN(CC)CCNC(=O)c1cc(-c2ccco2)nc2ccccc12

SMILES: CCN1CCN(CCCNc2[nH]cnc3ncnc2-3)CC1
AC50 (Escherichia coli [8]): 74.1 µM (active) | EC50 [9]: > 195 µM (not active)

SMILES: C[C@@H](CN1CCC(n2c(=O)[nH]c3ccccc32)CC1)NC(=O)c1ccco1
IC50 (Phospholipase D1): 0.19 µM (active) | IC50 (Phospholipase D2): 7.9 µM (active)

IC50 (Caspase-3): > 99 µM (inactive) | IC50 [11]: > 99 µM (inactive) | IC50 [12]: > 99 µM (inactive)
SMILES: COc1ccccc1CC(=O)Nc1ccc(-c2noc(/C=C/c3ccccc3)n2)cc1
IC50 [10]: > 99 µM (inactive)

SMILES: O=C(NCCN1CCC2(CC1)C(=O)NCN2c1ccc(Cl)cc1)c1ccc(Cl)cc1
IC50 (Phospholipase D1): 3.59 µM (active) | IC50 (Phospholipase D2): 0.635 µM (active)

SMILES: CC(C)CNC(=O)CCc1nc(-c2ccc(C(C)(C)C)cc2)no1
IC50 (HEK293 [3]): 1.51 µM (active) | IC50 (HEK293 [4]): > 80 µM (inactive) | IC50 (Jurkat): 2.97 µM (active)

SMILES: Cc1ccc(C2CC2/C(=N/O)c2ccc(F)cc2)cc1 (centres undefined)
AC50 (Escherichia coli [13]): 25.9 µM (active) | AC50 (Escherichia coli [8]): 53.3 µM (active)
